Values of other authors as cited in patent US10815228B2, “Aztreonam derivatives and uses thereof” (ARIXA PHARMACEUTICALS, INC., priority 2017, dated 2020).

C[C@H]1[C@H](NC(=O)/C(=N/OC(C)(C)C(=O)O)c2csc(N)n2)C(=O)N1S(=O)(=O)O [aztreonam, (2-((((E)-1-(2-aminothiazol-4-yl)-2-(((2S,3S)-2-methyl-4-oxo-1-sulfoazetidin-3-yl)amino)-2-oxoethylidene)amino)oxy)-2-methylpropanoic acid)]
oral bioavailability (aztreonam, statement in words): poor oral bioavailability | oral bioavailability of aztreonam (orally administered aztreonam): less than 1%
